Measurements reported in US11304944B2, “MetAP2 inhibitors and methods of treating obesity” (SynDevRx, Inc., priority 2013, dated 2022).

Experiments:
[1] = system: DIO C57Bl6 mice; test: In vivo testing DIO C57Bl6 mice: weight changes, food consumption, body composition (Compound 16 vs TNP-470); settings: for Body Weight Day 33: sc; for Total fat as a percentage of BW / B.W. / Epididymal Fat / Inguinal Fat / Liver / Retroperitoneal Fat / Total Fat: Day 33
Experimental: C57Bl6 male mice (N=6) thirteen weeks old with an average of weight of 34 g were ad libitum fed TD.06414 a high fat diet composed of 60% Kcal from fat (Harlan diet). On study day 1 animals were randomized into groups so that the average weight of each group was 33.9 g. […] Animals were weighed every other day. Food consumption was measured weekly. On day 33 gross pathology was performed to determine body composition.

[2] = system: DIO Levin rats; test: In vivo testing DIO Levin rats: weight changes, food consumption, insulin, leptin levels; settings: for Final BW: after 68 days, 60% fat diet
Experimental: CKD-732 as referred to herein is the hemitartrate salt of the following structure:
Test articles were administered subcutaneously on an every 4 day (q4d) schedule in a diet-induced obesity (DIO) Levin-DS rat model. […] A dietary intervention (Standard Chow, Labdiet 5001; 3.4 kcal/g) was included to compare to the drug interventions. Upon arrival at three weeks of age, the male rats received ad libitum pellets of Harlan Diet TD.06414, 60% of calories from fat, 21% of calories from carbohydrate; 5.1 kcal/g. Prior to dosing the rats were randomized into groups of three animals with an average body weight of 595 gm. […] Compound 1 in the form of the hemitartrate and CKD-732 in the form of the hemitartrate were dissolved in ethanol prior to dilution with vehicle. All doses were administered at a volume of 5.0 ml/kg. […] On day 1, first dose, the rats were 14 weeks of age. Also on day 1, Group 2 was switched from the high fat diet to a standard chow diet; the remaining groups were maintained on a high fat diet for the duration of the study.
Animals were weighed every other day. Food consumption was measured weekly. On an approximately weekly basis throughout the study, blood samples were taken for assessment of serum chemistries including glucose and insulin. On Day 48 all rats underwent a 4 hour fasted Oral Glucose Tolerance Test (OGTT). Animals were dosed orally (per os, PO) at 8 mL/kg 25% glucose (2 g/kg). On day 68, gross pathology was performed to determine body composition.

[3] = 0.6 mg/kd (so in the source) q4d sc

Substance: poly[HPMA-co-MA-GFLG-N-(trans-4-aminocyclohexyl)carbamoylfumagillol] [Compound 16]
- Body Weight Day 33 ([1]; 0.5 mg/kg/day, qod): 30.4 g
- Total fat as a percentage of BW ([1]; 1 mg/kg qod): 8.2%
- Body Weight Day 33 ([1]; 1.5 mg/kg/day, q4d): 27.4 g
- B.W. ([1]; 6 mg/kg q4d): 27.4 grams
- Epididymal Fat ([1]; 6 mg/kg q4d): 0.78 grams
- Inguinal Fat ([1]; 6 mg/kg q4d): 0.53 grams
- Liver ([1]; 6 mg/kg q4d): 1.17 grams
- Retroperitoneal Fat ([1]; 6 mg/kg q4d): 0.23 grams
- Total Fat ([1]; 6 mg/kg q4d): 1.55 grams
- Total fat as a percentage of BW ([1]; 6 mg/kg q4d): 5.6%
- degree of weight loss compared with TNP-470 ([1]; FIG. 1): superior to TNP-470 in the degree of weight loss
- food consumption compared with TNP-470 ([1]; FIG. 2): causes a greater reduction in food consumption than TNP-470
- decrease in weight ([1]; q4d dosing regimen (FIG. 1)): 19%
- B.W. ([1]; qod (Cmpd 16 1 mg/kg qod)): 30.4 grams
- Epididymal Fat ([1]; qod (Cmpd 16 1 mg/kg qod)): 1.18 grams
- Inguinal Fat ([1]; qod (Cmpd 16 1 mg/kg qod)): 0.92 grams
- Liver ([1]; qod (Cmpd 16 1 mg/kg qod)): 1.10 grams
- Retroperitoneal Fat ([1]; qod (Cmpd 16 1 mg/kg qod)): 0.42 grams
- Total Fat ([1]; qod (Cmpd 16 1 mg/kg qod)): 2.52 grams
- Avg. Insulin Day 7 ([2]; 0.3 mg/kg q4d sc): 2.27 ng/mL
- Avg. Insulin Day 15 ([2]; 0.3 mg/kg q4d sc): 1.65 ng/mL
- Avg. Insulin Day 23 ([2]; 0.3 mg/kg q4d sc): 1.66 ng/mL
- Avg. Insulin Day 48 ([2]; 0.3 mg/kg q4d sc): 1.70 ng/mL
- Avg. Insulin Pre-dosing ([2]; 0.3 mg/kg q4d sc): 1.76 ng/mL
- Group Average Food Consumption Day 1-8 ([2]; 0.3 mg/kg q4d sc): 125.2 g
- Group Average Food Consumption Day 9-15 ([2]; 0.3 mg/kg q4d sc): 125.9 g
- Group Average Food Consumption Day 16-23 ([2]; 0.3 mg/kg q4d sc): 128.2 g
- Group Average Food Consumption Day 24-30 ([2]; 0.3 mg/kg q4d sc): 129.3 g
- Group Average Food Consumption Day 31-36 ([2]; 0.3 mg/kg q4d sc): 122.4 g
- Group Average Food Consumption Day 37-43 ([2]; 0.3 mg/kg q4d sc): 131.9 g
- Group Average Food Consumption Day 44-50 ([2]; 0.3 mg/kg q4d sc): 135.6 g
- Group Average Food Consumption Day 51-57 ([2]; 0.3 mg/kg q4d sc): 134.5 g
- Group Average Food Consumption Day 58-63 ([2]; 0.3 mg/kg q4d sc): 134.2 g
- Group Average Food Consumption Day 63-68 ([2]; 0.3 mg/kg q4d sc): 57.6 g
- Leptin Levels Day 29 ([2]; 0.3 mg/kg q4d sc): 3.30
- Leptin Levels Pre-dose ([2]; 0.3 mg/kg q4d sc): 2.53
- Leptin Levels, Day 29, % Change from Baseline ([2]; 0.3 mg/kg q4d sc): 30.3%
- Final BW ([2]; 0.3 mg/kg q4d sc): 727.3 g
- Avg. Insulin Day 7 [2, 3]: 2.09 ng/mL
- Avg. Insulin Day 15 [2, 3]: 1.38 ng/mL
- Avg. Insulin Day 23 [2, 3]: 1.72 ng/mL
- Avg. Insulin Day 48 [2, 3]: 1.91 ng/mL
- Avg. Insulin Pre-dosing [2, 3]: 2.95 ng/mL
- Group Average Food Consumption Day 1-8 [2, 3]: 121.2 g
- Group Average Food Consumption Day 9-15 [2, 3]: 101.0 g
- Group Average Food Consumption Day 16-23 [2, 3]: 109.7 g
- Group Average Food Consumption Day 24-30 [2, 3]: 122.1 g
- Group Average Food Consumption Day 31-36 [2, 3]: 125.8 g
- Group Average Food Consumption Day 37-43 [2, 3]: 116.6 g
- Group Average Food Consumption Day 44-50 [2, 3]: 118.2 g
- Group Average Food Consumption Day 51-57 [2, 3]: 123.1 g
- Group Average Food Consumption Day 58-63 [2, 3]: 130.7 g
- Group Average Food Consumption Day 63-68 [2, 3]: 45.9 g
- Leptin Levels Day 29 ([2]; 1 mg/kg q4d sc): 4.53
- Leptin Levels Pre-dose ([2]; 1 mg/kg q4d sc): 4.67
- Leptin Levels, Day 29, % Change from Baseline ([2]; 1 mg/kg q4d sc): −2.9%
- Final BW ([2]; 1.0 mg/kg q4d sc): 668.6 g
- lower body weight than rats on the standard chow diet ([2]; 3 mg/kg Q4D, end of the study): 6.2%
- lower body weight than the vehicle control ([2]; 3 mg/kg Q4D, end of the study): 22.1%
- Avg. Insulin Day 7 ([2]; 3 mg/kg q4d sc): 0.66 ng/mL
- Avg. Insulin Day 15 ([2]; 3 mg/kg q4d sc): 0.54 ng/mL
- Avg. Insulin Day 23 ([2]; 3 mg/kg q4d sc): 1.26 ng/mL
- Avg. Insulin Day 48 ([2]; 3 mg/kg q4d sc): 1.08 ng/mL
- Avg. Insulin Pre-dosing ([2]; 3 mg/kg q4d sc): 1.49 ng/mL
- Group Average Food Consumption Day 1-8 ([2]; 3 mg/kg q4d sc): 97.3 g
- Group Average Food Consumption Day 9-15 ([2]; 3 mg/kg q4d sc): 63.2 g
- Group Average Food Consumption Day 16-23 ([2]; 3 mg/kg q4d sc): 123.4 g
- Group Average Food Consumption Day 24-30 ([2]; 3 mg/kg q4d sc): 108.7 g
- Group Average Food Consumption Day 31-36 ([2]; 3 mg/kg q4d sc): 102.6 g
- Group Average Food Consumption Day 37-43 ([2]; 3 mg/kg q4d sc): 105.5 g
- Group Average Food Consumption Day 44-50 ([2]; 3 mg/kg q4d sc): 129.9 g
- Group Average Food Consumption Day 51-57 ([2]; 3 mg/kg q4d sc): 115.2 g
- Group Average Food Consumption Day 58-63 ([2]; 3 mg/kg q4d sc): 128.0 g
- Group Average Food Consumption Day 63-68 ([2]; 3 mg/kg q4d sc): 43.3 g
- Leptin Levels Day 29 ([2]; 3 mg/kg q4d sc): 1.36
- Leptin Levels Pre-dose ([2]; 3 mg/kg q4d sc): 2.47
- Leptin Levels, Day 29, % Change from Baseline ([2]; 3 mg/kg q4d sc): −45.0%
- Final BW ([2]; 3.0 mg/kg q4d sc): 604.7 g
- Avg. Insulin Day 7 ([2]; 6 mg, q7d sc): 1.96 ng/mL
- Avg. Insulin Day 15 ([2]; 6 mg, q7d sc): 1.00 ng/mL
- Avg. Insulin Day 23 ([2]; 6 mg, q7d sc): 1.11 ng/mL
- Avg. Insulin Day 48 ([2]; 6 mg, q7d sc): 1.32 ng/mL
- Avg. Insulin Pre-dosing ([2]; 6 mg, q7d sc): 3.06 ng/mL
- Group Average Food Consumption Day 1-8 ([2]; 6 mg, q7d sc): 105.2 g
- Group Average Food Consumption Day 9-15 ([2]; 6 mg, q7d sc): 48.3 g
- Group Average Food Consumption Day 16-23 ([2]; 6 mg, q7d sc): 43.9 g
- Group Average Food Consumption Day 24-30 ([2]; 6 mg, q7d sc): 139.8 g
- Group Average Food Consumption Day 31-36 ([2]; 6 mg, q7d sc): 117.4 g
- Group Average Food Consumption Day 37-43 ([2]; 6 mg, q7d sc): 126.3 g
- Group Average Food Consumption Day 44-50 ([2]; 6 mg, q7d sc): 81.2 g
- Group Average Food Consumption Day 51-57 ([2]; 6 mg, q7d sc): 107.5 g
- Group Average Food Consumption Day 58-63 ([2]; 6 mg, q7d sc): 107.7 g
- Group Average Food Consumption Day 63-68 ([2]; 6 mg, q7d sc): 19.8 g
- Leptin Levels Day 29 ([2]; 6 mg, q7d sc): 2.00
- Leptin Levels Pre-dose ([2]; 6 mg, q7d sc): 3.93
- Leptin Levels, Day 29, % Change from Baseline ([2]; 6 mg, q7d sc): −49.2%
- Final BW ([2]; 6.0 mg/kg q7d sc): 596.7 g
- change in leptin levels from baseline versus dose ([2]; FIG. 18): dose-dependent response
- weight loss versus fumagillol exposure, compared to Compound 1 or CKD-732 ([2]; day 68, FIG. 12): greater weight loss with significantly lower fumagillol exposure
